Results as given in US12600724B2, “Indole alkaloid and preparation method and use thereof” (NANJING UNIVERSITY OF CHINESE MEDICINE, priority 2022, dated 2026).

System: primary DRG neuron
Assay: Axon growth of primary DRG neurons (immunofluorescence, Neuro J)
Type: cell-based, C57BL/6J mice
Conditions: Mus musculus, 24 hours, multiple of total axon length of a single DRG neuron relative to blank control group
Method: Diabetic peripheral neuropathy involved a sensory neuron first, and a main pathological change was axonal atrophy and degeneration, or even disappearance. […] Therefore, the compounds in the examples were added with the primary DRG neuron to incubate for a certain period of time, then the axon growth of the DRG neuron was detected by immunofluorescence, and an axon length was quantified by Neuro J, so as to evaluate the promotion effect of the compound on the axon growth of the peripheral sensory neuron.
Primary antibodies of mice anti-β-tubulin III used for fluorescent staining were purchased from Sigma Company, cell culture reagents were all purchased from Gibco Company, and DRG neuronal cells were taken from C57BL/6J mice. Specific experimental steps were as follows: fresh DRG of the C57 mice was extracted to digest into a single-cell suspension and then inoculated into a culture plate for adherent culture overnight, with vinblastine as a positive drug, the to-be-detected compounds S1 to S87 ([…]) synthesized in the above examples were given to incubate for 24 hours, then an original culture medium was removed, 4% paraformaldehyde was added into each well to fix for 15 minutes after PBS washing, the mixture was permeabilized with 0.3% TritonX-100 for 5 minutes and sealed at room temperature with 4% BSA for 1 hour, a primary antibody (1:1000) was incubated at 4° C. overnight, a goat anti-mouse fluorescent secondary antibody (1:300) was incubated at room temperature in the dark for 1 hour, and a sealed slide was imaged by a fluorescence microscope (Leica). According to the image, a total axon length of a single DRG neuron was tracked by a Neuro J plug-in in Image J software, and a multiple of the total axon length relative to that of the blank control group was calculated.

Structure (SMILES) | fold induction at 10 µM
CC[C@@]12C=C(C(=O)N[C@@H](CC(=O)O)C(=O)O)n3c4c(c5ccccc53)CCN(CCC1)[C@H]42 [Compound S70] | 10.8
CC[C@@]12C=C(C(=O)N[C@@H](CC(N)=O)C(=O)O)n3c4c(c5ccccc53)CCN(CCC1)[C@H]42 [Compound S71] | 10.5
CC[C@@]12C=C(C(=O)N[C@@H](CN)C(=O)O)n3c4c(c5ccccc53)CCN(CCC1)[C@H]42 [Compound S72] | 11.3
CC[C@@]12C=C(C(=O)N[C@@H](C)C(=O)O)n3c4c(c5ccccc53)CCN(CCC1)[C@H]42 [Compound S73] | 12.1
CC[C@@]12C=C(C(=O)N[C@H](C(=O)O)C(C)C)n3c4c(c5ccccc53)CCN(CCC1)[C@H]42 [Compound S74] | 10.9
CC[C@@]12C=C(C(=O)N[C@@H](Cc3ccccc3)C(=O)O)n3c4c(c5ccccc53)CCN(CCC1)[C@H]42 [Compound S75] | 10.7
CC[C@@]12C=C(C(=O)NCC(=O)N[C@@H](CS)C(=O)O)n3c4c(c5ccccc53)CCN(CCC1)[C@H]42 [Compound S76] | 11.1
CC[C@@]12C=C(C(=O)NCC(=O)N[C@@H](CC(N)=O)C(=O)O)n3c4c(c5ccccc53)CCN(CCC1)[C@H]42 [Compound S77] | 10.8
CC[C@@]12C=C(C(=O)NCC(=O)N[C@@H](Cc3ccc(O)cc3)C(=O)O)n3c4c(c5ccccc53)CCN(CCC1)[C@H]42 [Compound S78] | 10.2
CC[C@@]12C=C(C(=O)NCC(=O)N[C@@H](CC(C)C)C(=O)O)n3c4c(c5ccccc53)CCN(CCC1)[C@H]42 [Compound S79] | 10.6
CC[C@@]12C=C(C(=O)NCC(=O)N[C@H](C(=O)O)C(C)C)n3c4c(c5ccccc53)CCN(CCC1)[C@H]42 [Compound S80] | 11.3
CC[C@@]12C=C(C(=O)NCC(=O)N[C@@H](CO)C(=O)O)n3c4c(c5ccccc53)CCN(CCC1)[C@H]42 [Compound S81] | 11.9
CC[C@@]12C=C(C(=O)N[C@@H](C)C(=O)OC)n3c4c(c5ccccc53)CCN(CCC1)[C@H]42 [Compound S82] | 12.5
CC[C@@]12C=C(C(=O)NCC(=O)OC)n3c4c(c5ccccc53)CCN(CCC1)[C@H]42 [Compound S83] | 12.7
CC[C@@]12C=C(C(=O)N[C@H](C(=O)OC)C(C)C)n3c4c(c5ccccc53)CCN(CCC1)[C@H]42 [Compound S84] | 11
CC[C@@]12C=C(C(=O)N[C@@H](CO)C(=O)OC)n3c4c(c5ccccc53)CCN(CCC1)[C@H]42 [Compound S85] | 11.8
CC[C@@]12C=C(C(=O)NCC(=O)N[C@@H](CC(C)C)C(=O)OC)n3c4c(c5ccccc53)CCN(CCC1)[C@H]42 [Compound S86] | 11
CC[C@]12CCCN3CCc4c(n(c5ccccc45)[C@@](O)(C(=O)OC)C1)[C@@H]32 [Vincamine, reference compound] | 9.5
